Earlier results on one molecule are cited in article PMC11581222, “Inhibition of CCl4-induced liver inflammation and fibrosis by a NEU3 inhibitor” (PLOS ONE, 2024).

For data set [1], the system named is MCD diet-induced liver fibrosis. Also noted: method as in PMID 33378413. Particulars: cited from earlier work.
A further data set relates to human recombinant NEU3. On the set-up: method as in PMID 33144389. As to conditions: NEU3 species not specified for DANA; read-out: inhibition of active TGF-β1 release; cited from earlier work.
The test system of data set [2] is bleomycin-induced pulmonary fibrosis. Particulars: cited from earlier work.
Data set [3] concerns high fat diet (HFD)-induced liver inflammation, weight gain and steatosis. On the set-up: method as in PMID 33039353. Particulars: injections, cited from earlier work.

SMILES strings stand for the structures. Where only a bound is given, the exact number is not on record here.

Turning to `CC(=O)N[C@H]1[C@H]([C@H](O)[C@H](O)CO)OC(C(=O)O)=C[C@@H]1O` [DANA, N-acetyl-2,3-dehydro-2-deoxyneuraminic acid], the “MCD diet-induced liver fibrosis” value in data set [1] was “inhibits methionine and choline-deficient (MCD) diet-induced liver fibrosis”. In the data set with human recombinant NEU3, the IC50 was greater than 100 µM. For the same molecule, the “desialylation in lung fibrosis” value in data set [2] was “reversed desialylation in lung fibrosis”. In addition, the pulmonary fibrosis result in data set [2] (injections, male mice) was “attenuate bleomycin-induced pulmonary fibrosis”. In addition, the “HFD induced weight gain and steatosis” value in data set [3] was “inhibited HFD induced weight gain and steatosis”. Also, the HFD-induced liver inflammation result in data set [3] (male mice) is “attenuate high fat diet (HFD)-induced liver inflammation”.
